According to patent US11771709B2, “ALK protein degradation agent and anti-tumor application thereof” (ShanghaiTech University, priority 2017, dated 2023):

These molecules were tested on SR (NPM-ALK) cells (assay: Growth inhibition IC50 in ALCL SR cells (CCK8/WST, 72 hours)). Settings: not given.
Assay type: cell-based

CCc1cc2c(cc1N1CCNCC1)C(C)(C)c1[nH]c3cc(C#N)ccc3c1C2=O [Alectinib Analogue A, 9-ethyl-6,6-dimethyl-11-oxo-8-(piperazin-1-yl)-6,11-dihydro-5H-benzo[b]carbazole-3-carbonitrile, reference compound] was tested, and the IC50 was 2.4 nM.

Same assay, conditions: 72 h, SR cells, WST; Brigatinib-based PROTAD molecules (Table 3)

First: COc1cc(N2CCC(N(C)C(=O)CCCNc3cccc4c3C(=O)N(C3CCC(=O)NC3=O)C4=O)CC2)ccc1Nc1ncc(Cl)c(Nc2ccccc2P(C)(C)=O)n1 (stereo not drawn) [SIAIS220030, N-(1-(4-((5-chloro-4-((2-(dimethylphosphoryl)phenyl)amino)pyrimidin-2-yl)amino)-3-methoxyphenyl)piperidin-4-yl)-4-((2-(2,6-dioxopiperidin-3-yl)-1,3-dioxoisoindolin-4-yl)amino)-N-methylbutanamide]
Second: COc1cc(N2CCC(NC(=O)CCc3cccc4c3C(=O)N(C3CCC(=O)NC3=O)C4=O)CC2)ccc1Nc1ncc(Cl)c(Nc2ccccc2P(C)(C)=O)n1 (stereo not drawn) [SIAIS219170, N-(1-(4-((5-chloro-4-((2-(dimethylphosphoryl)phenyl)amino)pyrimidin-2-yl)amino)-3-methoxyphenyl)piperidin-4-yl)-3-(2-(2,6-dioxopiperidin-3-yl)-1,3-dioxoisoindolin-4-yl)propanamide]
The IC50 of the first is 1.9-fold lower: 5.8 nM for the first, 10.8 ± 1.4 nM for the second. The first is the more potent here.

Going from COc1cc(N2CCC(N3CCN(CCNc4cccc5c4C(=O)N(C4CCC(=O)NC4=O)C5=O)CC3)CC2)ccc1Nc1ncc(Cl)c(Nc2ccccc2P(C)(C)=O)n1 (stereo not drawn) [SIAIS220027, 4-((2-(4-(1-(4-((5-chloro-4-((2-(dimethylphosphoryl)phenyl)amino)pyrimidin-2-yl)amino)-3-methoxyphenyl)piperidin-4-yl)piperazin-1-yl)ethyl)amino)-2-(2,6-dioxopiperidin-3-yl)isoindoline-1,3-dione] to COc1cc(N2CCC(N3CCN(C(=O)CCCCCNc4cccc5c4CN(C4CCC(=O)NC4=O)C5=O)CC3)CC2)ccc1Nc1ncc(Cl)c(Nc2ccccc2P(C)(C)=O)n1 (stereo not drawn) [SIAIS219157, 3-(4-((6-(4-(1-(4-((5-chloro-4-((2-(dimethylphosphoryl)phenyl)amino)pyrimidin-2-yl)amino)-3-methoxyphenyl)piperidin-4-yl)piperazin-1-yl)-6-oxohexyl)amino)-1-oxoisoindolin-2-yl)piperidine-2,6-dione], the IC50 falls from 3.8 nM to 1.99 ± 0.2 nM (1.9-fold).

COc1cc(N2CCC(NC(=O)CCCCCNc3cccc4c3CN(C3CCC(=O)NC3=O)C4=O)CC2)ccc1Nc1ncc(Cl)c(Nc2ccccc2P(C)(C)=O)n1 (stereo not drawn) [SIAIS219153, N-(1-(4-((5-chloro-4-((2-(dimethylphosphoryl)phenyl)amino)pyrimidin-2-yl)amino)-3-methoxyphenyl)piperidin-4-yl)-6-((2-(2,6-dioxopiperidin-3-yl)-1-oxoisoindolin-4-yl)amino)hexanamide] and COc1cc(N2CCC(NC(=O)CCCCCCNc3cccc4c3CN(C3CCC(=O)NC3=O)C4=O)CC2)ccc1Nc1ncc(Cl)c(Nc2ccccc2P(C)(C)=O)n1 (stereo not drawn) [SIAIS219154, N-(1-(4-((5-chloro-4-((2-(dimethylphosphoryl)phenyl)amino)pyrimidin-2-yl)amino)-3-methoxyphenyl)piperidin-4-yl)-7-((2-(2,6-dioxopiperidin-3-yl)-1-oxoisoindolin-4-yl)amino)heptanamide] are within 1.5-fold of each other in IC50: 3.12 ± 0.2 nM for the first, 3.8 ± 0.2 nM for the second.

First: COc1cc(N2CCC(NC(=O)CCOCCOCCOCCOCCOCCNc3cccc4c3C(=O)N(C3CCC(=O)NC3=O)C4=O)CC2)ccc1Nc1ncc(Cl)c(Nc2ccccc2P(C)(C)=O)n1 (stereo not drawn) [SIAIS151117, N-(1-(4-((5-chloro-4-((2-(dimethylphosphoryl)phenyl)amino)pyrimidin-2-yl)amino)-3-methoxyphenyl)piperidin-4-yl)-1-((2-(2,6-dioxopiperidin-3-yl)-1,3-dioxoisoindolin-4-yl)amino)-3,6,9,12,15-pentaoxaoctadecan-18-amide]
Second: COc1cc(N2CCC(NC(=O)CCCNc3cccc4c3CN(C3CCC(=O)NC3=O)C4=O)CC2)ccc1Nc1ncc(Cl)c(Nc2ccccc2P(C)(C)=O)n1 (stereo not drawn) [SIAIS219128, N-(1-(4-((5-chloro-4-((2-(dimethylphosphoryl)phenyl)amino)pyrimidin-2-yl)amino)-3-methoxyphenyl)piperidin-4-yl)-4-((2-(2,6-dioxopiperidin-3-yl)-1-oxoisoindolin-4-yl)amino)butanamide]
The IC50 of the first is 4.6-fold higher: 30.9 ± 21.3 nM for the first, 6.67 ± 1 nM for the second. The second is the more potent here.

COc1cc(N2CCC(NC(=O)CNc3cccc4c3CN(C3CCC(=O)NC3=O)C4=O)CC2)ccc1Nc1ncc(Cl)c(Nc2ccccc2P(C)(C)=O)n1 (stereo not drawn) [SIAIS219151, N-(1-(4-((5-chloro-4-((2-(dimethylphosphoryl)phenyl)amino)pyrimidin-2-yl)amino)-3-methoxyphenyl)piperidin-4-yl)-2-((2-(2,6-dioxopiperidin-3-yl)-1-oxoisoindolin-4-yl)amino)acetamide] gave an IC50 of 102 ± 4.8 nM.

Same assay, conditions: SR cells, WST; Alectinib based ALK PROTAD compounds (Table 4)

CCc1cc2c(cc1N1CCN(C(=O)CCCCCC(=O)N[C@H](C(=O)N3C[C@H](O)C[C@H]3C(=O)NCc3ccc(-c4scnc4C)cc3)C(C)(C)C)CC1)C(C)(C)c1[nH]c3cc(C#N)ccc3c1C2=O [SIAIS164096, (2S,4R)-1-((S)-2-(7-(4-(3-cyano-9-ethyl-6,6-dimethyl-11-oxo-6,11-dihydro-5H-benzo[b]carbazol-8-yl)piperazin-1-yl)-7-oxoheptanamido)-3,3-dimethylbutanoyl)-4-hydroxy-N-(4-(4-methylthiazol-5-yl)benzyl)pyrrolidine-2-carboxamide] and CCc1cc2c(cc1N1CCN(C(=O)CCCCC(=O)N[C@H](C(=O)N3C[C@H](O)C[C@H]3C(=O)NCc3ccc(-c4scnc4C)cc3)C(C)(C)C)CC1)C(C)(C)c1[nH]c3cc(C#N)ccc3c1C2=O [SIAIS164095, (2S,4R)-1-((S)-2-(6-(4-(3-cyano-9-ethyl-6,6-dimethyl-11-oxo-6,11-dihydro-5H-benzo[b]carbazol-8-yl)piperazin-1-yl)-6-oxohexanamido)-3,3-dimethylbutanoyl)-4-hydroxy-N-(4-(4-methylthiazol-5-yl)benzyl)pyrrolidine-2-carboxamide] are within 1.5-fold of each other in IC50: 79.5 nM for the first, 71.3 nM for the second.

CCc1cc2c(cc1N1CCN(C(=O)CCOCCOCCOCCC(=O)N[C@H](C(=O)N3C[C@H](O)C[C@H]3C(=O)NCc3ccc(-c4scnc4C)cc3)C(C)(C)C)CC1)C(C)(C)c1[nH]c3cc(C#N)ccc3c1C2=O [SIAIS164037, (2S,4R)-1-((S)-2-(tert-butyl)-16-(4-(3-cyano-9-ethyl-6,6-dimethyl-11-oxo-6,11-dihydro-5H-benzo[b]carbazol-8-yl)piperazin-1-yl)-4,16-dioxo-7,10,13-trioxa-3-azahexadecanoyl)-4-hydroxy-N-(4-(4-methylthiazol-5-yl)benzyl)pyrrolidine-2-carboxamide] and CCc1cc2c(cc1N1CCC(N3CCN(C(=O)CCCCC(=O)N[C@H](C(=O)N4C[C@H](O)C[C@H]4C(=O)NCc4ccc(-c5scnc5C)cc4)C(C)(C)C)CC3)CC1)C(C)(C)c1[nH]c3cc(C#N)ccc3c1C2=O [SIAIS219015, (2S,4R)-1-((S)-2-(6-(4-(1-(3-cyano-9-ethyl-6,6-dimethyl-11-oxo-6,11-dihydro-5H-benzo[b]carbazol-8-yl)piperidin-4-yl)piperazin-1-yl)-6-oxohexanamido)-3,3-dimethylbutanoyl)-4-hydroxy-N-(4-(4-methylthiazol-5-yl)benzyl)pyrrolidine-2-carboxamide] are within 1.5-fold of each other in IC50: 153 nM for the first, 110 nM for the second.

CCc1cc2c(cc1N1CCC(NC(=O)CCCNc3cccc4c3C(=O)N(C3CCC(=O)NC3=O)C4=O)CC1)C(C)(C)c1[nH]c3cc(C#N)ccc3c1C2=O (stereo not drawn) [SIAIS219010, N-(1-(3-cyano-9-ethyl-6,6-dimethyl-11-oxo-6,11-dihydro-5H-benzo[b]carbazol-8-yl)piperidin-4-yl)-4-((2-(2,6-dioxopiperidin-3-yl)-1,3-dioxoisoindolin-4-yl)amino)butanamide] and CCc1cc2c(cc1N1CCC(NC(=O)CNc3cccc4c3C(=O)N(C3CCC(=O)NC3=O)C4=O)CC1)C(C)(C)c1[nH]c3cc(C#N)ccc3c1C2=O (stereo not drawn) [SIAIS219001, N-(1-(3-cyano-9-ethyl-6,6-dimethyl-11-oxo-6,11-dihydro-5H-benzo[b]carbazol-8-yl)piperidin-4-yl)-2-((2-(2,6-dioxopiperidin-3-yl)-1,3-dioxoisoindolin-4-yl)amino)acetamide] are within 1.5-fold of each other in IC50: 31.1 nM for the first, 21.3 nM for the second.

CCc1cc2c(cc1N1CCC(N3CCNCC3)CC1)C(C)(C)c1[nH]c3cc(C#N)ccc3c1C2=O [Alectinib Analogue C(SIAIS184192), 9-ethyl-6,6-dimethyl-11-oxo-8-(4-(piperazin-1-yl)piperidin-1-yl)-6,11-dihydro-5H-benzo[b]carbazole-3-carbonitrile] and CCc1cc2c(cc1N1CCC(N)CC1)C(C)(C)c1[nH]c3cc(C#N)ccc3c1C2=O [Alectinib Analogue B(SIAIS184193), 8-(4-aminopiperidin-1-yl)-9-ethyl-6,6-dimethyl-11-oxo-6,11-dihydro-5H-benzo[b]carbazole-3-carbonitrile] are within 1.5-fold of each other in IC50: 19.1 nM for the first, 14.7 nM for the second.

CCc1cc2c(cc1N1CCC(N3CCN(C(=O)CCCNc4cccc5c4C(=O)N(C4CCC(=O)NC4=O)C5=O)CC3)CC1)C(C)(C)c1[nH]c3cc(C#N)ccc3c1C2=O (stereo not drawn) [SIAIS219003, 8-(4-(4-(4-((2-(2,6-dioxopiperidin-3-yl)-1,3-dioxoisoindolin-4-yl)amino)butanoyl)piperazin-1-yl)piperidin-1-yl)-9-ethyl-6,6-dimethyl-11-oxo-6,11-dihydro-5H-benzo[b]carbazole-3-carbonitrile] and CCc1cc2c(cc1N1CCC(N3CCN(C(=O)CNc4cccc5c4C(=O)N(C4CCC(=O)NC4=O)C5=O)CC3)CC1)C(C)(C)c1[nH]c3cc(C#N)ccc3c1C2=O (stereo not drawn) [SIAIS184194, 8-(4-(4-((2-(2,6-dioxopiperidin-3-yl)-1,3-dioxoisoindolin-4-yl)glycyl)piperazin-1-yl)piperidin-1-yl)-9-ethyl-6,6-dimethyl-11-oxo-6,11-dihydro-5H-benzo[b]carbazole-3-carbonitrile] are within 1.5-fold of each other in IC50: 21.8 nM for the first, 24.2 nM for the second.

With CCc1cc2c(cc1N1CCC(NC(=O)CCOCCOCCOCCOCCNc3cccc4c3C(=O)N(C3CCC(=O)NC3=O)C4=O)CC1)C(C)(C)c1[nH]c3cc(C#N)ccc3c1C2=O (stereo not drawn) [SIAIS219024, N-(1-(3-cyano-9-ethyl-6,6-dimethyl-11-oxo-6,11-dihydro-5H-benzo[b]carbazol-8-yl)piperidin-4-yl)-1-((2-(2,6-dioxopiperidin-3-yl)-1,3-dioxoisoindolin-4-yl)amino)-3,6,9,12-tetraoxapentadecan-15-amide] the IC50 was 73.1 nM.
